In US20240150345A1, “GCN2 MODULATING COMPOUNDS AND USES THEREOF” (HiberCell, Inc., priority 2021, published 2024) one finds IC50 data, which are given here for 13 compounds.

SMILES strings stand for the structures. Bounds are passed on as bounds.

T1 sequence (Q9P2K8 whole entry): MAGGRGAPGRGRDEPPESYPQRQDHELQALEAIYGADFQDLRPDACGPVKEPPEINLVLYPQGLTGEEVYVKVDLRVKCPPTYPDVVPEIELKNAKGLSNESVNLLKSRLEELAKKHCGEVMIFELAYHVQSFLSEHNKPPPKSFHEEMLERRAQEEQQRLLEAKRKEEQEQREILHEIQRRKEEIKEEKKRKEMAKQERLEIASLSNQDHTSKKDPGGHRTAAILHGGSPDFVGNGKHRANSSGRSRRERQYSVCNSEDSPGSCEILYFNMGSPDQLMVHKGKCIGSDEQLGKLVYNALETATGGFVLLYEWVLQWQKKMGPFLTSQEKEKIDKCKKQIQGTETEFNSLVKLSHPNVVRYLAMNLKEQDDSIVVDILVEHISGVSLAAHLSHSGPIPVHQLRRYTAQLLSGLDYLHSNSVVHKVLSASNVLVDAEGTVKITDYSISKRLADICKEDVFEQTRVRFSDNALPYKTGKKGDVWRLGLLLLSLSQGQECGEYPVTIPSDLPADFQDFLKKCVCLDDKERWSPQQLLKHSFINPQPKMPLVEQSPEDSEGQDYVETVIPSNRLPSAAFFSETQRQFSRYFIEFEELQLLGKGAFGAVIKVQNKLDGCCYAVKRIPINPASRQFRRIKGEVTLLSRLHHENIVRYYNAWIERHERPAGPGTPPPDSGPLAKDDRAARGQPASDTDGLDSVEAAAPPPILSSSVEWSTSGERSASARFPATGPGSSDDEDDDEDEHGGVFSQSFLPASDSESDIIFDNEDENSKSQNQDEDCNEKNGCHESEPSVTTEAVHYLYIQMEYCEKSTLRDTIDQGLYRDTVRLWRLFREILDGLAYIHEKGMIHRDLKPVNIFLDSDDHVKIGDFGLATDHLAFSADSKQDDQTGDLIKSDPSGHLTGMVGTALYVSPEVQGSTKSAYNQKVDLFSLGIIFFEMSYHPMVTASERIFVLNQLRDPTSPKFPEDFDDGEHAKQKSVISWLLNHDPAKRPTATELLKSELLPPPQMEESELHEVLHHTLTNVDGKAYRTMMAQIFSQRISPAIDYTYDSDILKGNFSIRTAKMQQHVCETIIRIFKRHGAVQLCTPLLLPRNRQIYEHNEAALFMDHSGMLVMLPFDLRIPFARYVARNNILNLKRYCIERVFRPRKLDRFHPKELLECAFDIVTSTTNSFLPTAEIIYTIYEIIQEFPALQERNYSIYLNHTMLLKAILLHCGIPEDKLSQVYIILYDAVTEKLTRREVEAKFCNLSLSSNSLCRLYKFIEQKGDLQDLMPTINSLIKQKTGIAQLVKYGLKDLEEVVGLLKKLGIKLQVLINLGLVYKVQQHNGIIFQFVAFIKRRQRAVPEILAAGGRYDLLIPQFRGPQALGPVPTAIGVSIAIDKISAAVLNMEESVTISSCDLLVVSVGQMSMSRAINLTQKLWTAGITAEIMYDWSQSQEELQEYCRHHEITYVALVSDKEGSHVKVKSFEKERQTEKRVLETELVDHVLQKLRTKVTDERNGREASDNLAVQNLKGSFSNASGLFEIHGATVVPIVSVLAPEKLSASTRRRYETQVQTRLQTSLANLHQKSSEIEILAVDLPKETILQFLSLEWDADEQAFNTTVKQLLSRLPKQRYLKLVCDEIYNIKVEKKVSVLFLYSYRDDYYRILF

This test has as its target T1, GCN2 (Homo sapiens, UniProt Q9P2K8).
T1 construct: purchased Carma Biosciences (so in the source)
As to the kind of experiment: TR-FRET biochemical assay for inhibition of GCN2 activity. To be noted: 2 nM GCN2, 100 nM GFP-eIF2α, 150 μM ATP, 1.5 hours at 25° C. In a few lines: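 Compounds (11-point, 3-fold series) were incubated with GCN2 (2 nM final), GFP-eIF2α (100 nM final) and 150 μM ATP with 2 mM DTT for 1.5 h at 25 °C. A 1 nM Tb-anti-P-eIF2α solution was then added for 2 h at 25 °C. TR-FRET was read (ex 340 nm, em 495/520 nm) and fitted with a 4-parameter sigmoidal curve.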
(TR-FRET usually uses a lanthanide donor and a delayed reading to cut background.)
As usually defined, the IC50 is the concentration at which inhibition is half-maximal. For the compound `COc1ncc(F)cc1S(=O)(=O)Nc1ccc(F)c(COc2cnn3cnc(C)c3c2)c1F` [Compound 82, N-[2,4-difluoro-3-[([5-methylimidazo[1,5-b]pyridazin-3-yl]oxy)methyl]phenyl]-5-fluoro-2-methoxypyridine-3-sulfonamide], the IC50 was below 50 nM.

In turn, `COc1ncc(F)cc1S(=O)(=O)Nc1ccc(F)c(COc2cnn3cnc(C(F)(F)F)c3c2)c1F` [Compound 83, N-[2,4-difluoro-3-([[5-(trifluoromethyl)imidazo[1,5-b]pyridazin-3-yl]oxy]methyl)phenyl]-5-fluoro-2-methoxypyridine-3-sulfonamide] showed an IC50 below 50 nM.

The compound `COc1ncc(F)cc1S(=O)(=O)Nc1ccc(F)c(COc2cnc3[nH]nc(-c4ccccc4)c3c2)c1F` [Compound 84, N-[2,4-difluoro-3-[([3-phenyl-1H-pyrazolo[3,4-b]pyridin-5-yl]oxy)methyl]phenyl]-5-fluoro-2-methoxypyridine-3-sulfonamide] displayed a 50% inhibitory concentration (IC50) below 50 nM.

The compound `COc1ncc(F)cc1S(=O)(=O)Nc1ccc(F)c(COc2cnc3[nH]nc(C)c3c2-c2ccccc2)c1F` [Compound 85, N-[2,4-difluoro-3-[([3-methyl-4-phenyl-1H-pyrazolo[3,4-b]pyridin-5-yl]oxy)methyl]phenyl]-5-fluoro-2-methoxypyridine-3-sulfonamide] yielded a half-inhibitory concentration (IC50) of 50 to 500 nM.

Regarding `COc1ncc(F)cc1S(=O)(=O)Nc1ccc(F)c(COc2cnc3[nH]nc(C)c3c2C2CC2)c1F` [Compound 86, N-[3-[([4-cyclopropyl-3-methyl-1H-Pyrazolo[3,4-b]pyridin-5-yl]oxy)methyl]-2,4-difluorophenyl]-5-fluoro-2-methoxypyridine-3-sulfonamide], the IC50 fell in the range of 50 to 500 nM.

As for `COc1ncc(F)cc1S(=O)(=O)Nc1ccc(F)c(COc2cnc3[nH]nc(C)c3c2-c2ccncc2)c1F` [Compound 87, N-[2,4-difluoro-3-([[3-methyl-4-(pyridin-4-yl)-1H-pyrazolo[3,4-b]pyridin-5-yl]oxy]methyl)phenyl]-5-fluoro-2-methoxypyridine-3-sulfonamide], the IC50 is 50 to 500 nM.

For the compound `COc1ncc(F)cc1S(=O)(=O)Nc1ccc(F)c(COc2cnc3[nH]nc(C)c3c2C(C)C)c1F` [Compound 88, N-[2,4-difluoro-3-[([4-isopropyl-3-methyl-1H-pyrazolo[3,4-b]pyridin-5-yl]oxy)methyl]phenyl]-5-fluoro-2-methoxypyridine-3-sulfonamide], the IC50 is above 1000 nM.

Compound `COc1ncc(F)cc1S(=O)(=O)Nc1ccc(F)c(COc2cnc3[nH]nc(C)c3c2Cc2ccccc2)c1F` [Compound 89, N-[3-[([4-benzyl-3-methyl-1H-pyrazolo[3,4-b]pyridin-5-yl]oxy)methyl]-2,4-difluorophenyl]-5-fluoro-2-methoxypyridine-3-sulfonamide] had an IC50 above 1000 nM.

Regarding `COc1ncc(F)cc1S(=O)(=O)Nc1ccc(F)c(COc2cnc3[nH]nc(C)c3c2-c2ccccn2)c1F` [Compound 90, N-[2,4-difluoro-3-([[3-methyl-4-(pyridin-2-yl)-1H-pyrazolo[3,4-b]pyridin-5-yl]oxy]methyl)phenyl]-5-fluoro-2-methoxypyridine-3-sulfonamide], the IC50 fell in the range of 50 to 500 nM.

`COc1ncc(F)cc1S(=O)(=O)Nc1ccc(F)c(COc2cnc3[nH]nc(C)c3c2-c2cccnc2)c1F` [Compound 91, N-[2,4-difluoro-3-([[3-methyl-4-(pyridin-3-yl)-1H-pyrazolo[3,4-b]pyridin-5-yl]oxy]methyl)phenyl]-5-fluoro-2-methoxypyridine-3-sulfonamide]: the IC50 lay in the range of 50 to 500 nM.

As to `COc1ncc(F)cc1S(=O)(=O)Nc1ccc(F)c(COc2cnc3[nH]nc(C)c3c2C2CCCC2)c1F` [Compound 92, N-(3-(((4-cyclopentyl-3-methyl-1H-pyrazolo[3,4-b]pyridin-5-yl)oxy)methyl)-2,4-difluorophenyl)-5-fluoro-2-methoxypyridine-3-sulfonamide], the IC50 lay in the range of 500 to 1000 nM.

In turn, `COc1ncc(F)cc1S(=O)(=O)Nc1ccc(F)c(COc2cnc3[nH]nc(C)c3c2C2CCN(C)CC2)c1F` [Compound 93, N-(2,4-difluoro-3-(((3-methyl-4-(1-methylpiperidin-4-yl)-1H-pyrazolo[3,4-b]pyridin-5-yl)oxy)methyl)phenyl)-5-fluoro-2-methoxypyridine-3-sulfonamide] came in with an IC50 above 1000 nM.

`COc1ncc(F)cc1S(=O)(=O)Nc1ccc(F)c(COc2cnc3[nH]nc(C)c3c2N2CCCCC2)c1F` [Compound 94, N-(2,4-difluoro-3-(((3-methyl-4-(piperidin-1-yl)-1H-pyrazolo[3,4-b]pyridin-5-yl)oxy)methyl)phenyl)-5-fluoro-2-methoxypyridine-3-sulfonamide] showed an IC50 of 50 to 500 nM.
